Assay results from patent publication US20040209897A1 (Pharmacia Corporation, priority 2002, published 2004).
Structures can show the parent of a compound that is named as a salt.

Each molecule was assayed against Recombinant MAPKAPK2 (MK-2) (Homo sapiens, UniProt P49137) (assay: Determination of MK-2 IC50 (HSP-peptide phosphorylation, anion exchange resin capture assay)). Settings: not given.
Sequence of Recombinant MAPKAPK2 (MK-2) (P49137 whole entry, species assumed): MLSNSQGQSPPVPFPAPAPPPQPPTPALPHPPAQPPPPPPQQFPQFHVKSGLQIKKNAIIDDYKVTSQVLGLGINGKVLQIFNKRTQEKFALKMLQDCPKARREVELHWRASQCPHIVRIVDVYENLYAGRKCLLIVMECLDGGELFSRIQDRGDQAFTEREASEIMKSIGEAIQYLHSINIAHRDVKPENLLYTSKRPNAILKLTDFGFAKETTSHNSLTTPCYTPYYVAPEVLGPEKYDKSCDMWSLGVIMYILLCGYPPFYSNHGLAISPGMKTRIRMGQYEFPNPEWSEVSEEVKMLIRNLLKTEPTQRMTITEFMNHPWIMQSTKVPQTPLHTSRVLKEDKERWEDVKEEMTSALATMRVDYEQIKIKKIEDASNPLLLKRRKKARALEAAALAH
Type: biochemical
For `O=C(CBr)Nc1cccc(-c2cc(-c3cc4c([nH]3)CCNC4=O)ccn2)c1` [Example 271, trifluoroacetate], the “kind of MK-2 inhibition (irreversible)” value was “irreversible inhibitors”.

Same assay, conditions: MAPKAP2 Avg. IC50
`NCc1cccc(-c2cc(-c3cc4c([nH]3)CCNC4=O)ccn2)c1` [Example 551, 2-{2-[3-(aminomethyl)phenyl]pyridin-4-yl}-1,5,6,7-tetrahydro-4H-pyrrolo[3,2-c]pyridin-4-one trifluoroacetate] was tested, and the IC50 was 207 nM.
Molecule `N/N=C(\c1ccccc1)c1cc(-c2cc3c([nH]2)CCNC3=O)ccn1` [Example 786, 2-{2-[(E)-hydrazono(phenyl)methyl]pyridin-4-yl}-1,5,6,7-tetrahydro-4H-pyrrolo[3,2-c]pyridin-4-one trifluoroacetate] has an IC50 of 14300 nM.
`O=C1NCCc2[nH]c(-c3ccnc(-c4ccc(OCC(O)CN5CCC[C@@H]5CN5CCCC5)cc4)c3)cc21` (stereo partly drawn) [Example 508, 2-[2-(4-{2-hydroxy-3-[(2R)-2-(pyrrolidin-1-ylmethyl)pyrrolidin-1-yl]propoxy}phenyl)pyridin-4-yl]-1,5,6,7-tetrahydro-4H-pyrrolo[3,2-c]pyridin-4-one trifluoroacetate] showed an IC50 of 149 nM.
`C=CC(=O)N(CCNC(=O)OC(C)(C)C)c1ccc(-c2cc(-c3cc4c([nH]3)CCNC4=O)ccn2)cn1` [Example 732, trifluoroacetate] gave an IC50 of 2330 nM.
Molecule `O=C1NCCc2[nH]c(-c3ccnc(-c4cc(F)cc(F)c4)c3)cc21` [Example 80, trifluoroacetate] has an IC50 of 18.5 nM.
Work on `Cc1cccc(/C=C/c2cc(-c3cc4c([nH]3)CCNC4=O)ccn2)c1C` [Example 577, trifluoroacetate] yielded an IC50 of 279 nM.
`N#Cc1ccc(-c2cc(-c3cc4c([nH]3)CCNC4=O)ccn2)cc1` [Example 327, trifluoroacetate] showed an IC50 of 62.3 nM.
Molecule `O=C(O)c1ccc(-c2cc(-c3cc4c([nH]3)CCNC4=O)c(F)cn2)cc1` [Example 28] has an IC50 of 10.1 nM.
`O=C1NCCc2[nH]c(-c3ccnc(/C=C/c4ccc(C(F)(F)F)cc4F)c3)cc21` [Example 510, 2-(2-{(E)-2-[2-fluoro-4-(trifluoromethyl)phenyl]vinyl}pyridin-4-yl)-1,5,6,7-tetrahydro-4H-pyrrolo[3,2-c]pyridin-4-one trifluoroacetate] was tested, and the IC50 was 150 nM.
`O=C1NCCc2[nH]c(-c3ccnc(/C=C/c4cccc(CCN5CCOCC5)c4)c3)cc21` [Example 192, trifluoroacetate] was tested, and the IC50 was 32.4 nM.
In the case of `O=C1NCCc2[nH]c(-c3ccnc(/C=C/c4ccccc4C4CCCCC4)c3)cc21` [Example 694, trifluoroacetate], the IC50 is reported as 1150 nM.
`O=C1NCCc2[nH]c(-c3ccnc(/C=C/c4c(Cl)cccc4N4CCOCC4)c3)cc21` [Example 715, trifluoroacetate] was tested, and the IC50 was 1800 nM.
`C/C=C/C(=O)Nc1cccc(-c2cc(-c3cc4c([nH]3)CCNC4=O)ccn2)c1` [Example 430, trifluoroacetate] showed an IC50 of 99.3 nM.
`CC(C)c1ccccc1/C=C/c1cc(-c2cc3c([nH]2)CCNC3=O)ccn1` [Example 599, trifluoroacetate] was tested, and the IC50 was 342 nM.
For `O=C1NCCc2[nH]c(-c3ccnc(-c4ccc(N5CCOCC5)nc4)c3)cc21` [Example 63, trifluoroacetate], the IC50 was 16.4 nM.
With `O=C1NCCc2[nH]c(-c3ccnc(-c4ccc([N+](=O)[O-])cc4)c3)cc21` [Example 587] the IC50 was 316 nM.
For `O=C1NCCc2[nH]c(-c3ccnc(/C=C/c4ccccc4-c4ccccc4)c3)cc21` [Example 670, trifluoroacetate], the IC50 was 816 nM.
`CCc1cccc(-c2cc(-c3cc4c([nH]3)CCNC4=O)ccn2)c1` [Example 272, trifluoroacetate] was tested, and the IC50 was 49.3 nM.
`O=C1NCCc2[nH]c(-c3ccnc(/C=C/c4ccc(-c5ccccc5)s4)c3)cc21` [Example 683, trifluoroacetate] gave an IC50 of 1020 nM.
For `O=C1NCCc2[nH]c(-c3ccnc(/C=C/c4cccnc4)c3)cc21` [Example 78, trifluoroacetate], the IC50 was 18.3 nM.
`C=C(C)C(=O)Nc1cccc(-c2cc(-c3cc4c([nH]3)CCNC4=O)ccn2)c1` [Example 287, trifluoroacetate] gave an IC50 of 52.5 nM.
In the case of `O=C1NCC(c2ccccc2)c2[nH]c(-c3ccnc(-c4cnc5ccccc5c4)c3)cc21` (stereo not shown) [Example 768, 7-phenyl-2-(2-quinolin-3-ylpyridin-4-yl)-1,5,6,7-tetrahydro-4H-pyrrolo[3,2-c]pyridin-4-one trifluoroacetate], the IC50 is reported as 7980 nM.
Work on `O=C(O)c1cccc(-c2cccc(-c3cc(-c4cc5c([nH]4)CCNC5=O)ccn3)c2)c1` [Example 333, trifluoroacetate] yielded an IC50 of 64.2 nM.
`COc1cc(/C=C/c2cc(-c3cc4c([nH]3)CCNC4=O)ccn2)cc(OC)c1` [Example 171, trifluoroacetate] showed an IC50 of 29.6 nM.
`CC(=NO)c1cccc(-c2cc(-c3cc4c([nH]3)CCNC4=O)ccn2)c1` [Example 134, bis(trifluoroacetate)] gave an IC50 of 25.7 nM.
`CN(C)C(=O)CCCOc1ccc(-c2cc(-c3cc4c([nH]3)CCNC4=O)ccn2)cc1` [Example 326, trifluoroacetate] gave an IC50 of 62.2 nM.
For `O=C1NCCc2[nH]c(-c3ccnc(/C=C/Cc4ccccc4)c3)cc21` [Example 713, trifluoroacetate], the IC50 was 1760 nM.
`O=C1NCCc2[nH]c(-c3ccnc(-c4cccc(CN5CCCC5)c4)c3)cc21` [Example 660, trifluoroacetate] showed an IC50 of 750 nM.
Molecule `COC(=O)N1CC(c2cc(-c3cc4c([nH]3)CCNC4=O)ccn2)=Cc2ccccc21` [Example 362, trifluoroacetate] has an IC50 of 73.8 nM.
In the case of `Cc1cc(C)c(/C=C\c2cc(-c3cc4c([nH]3)CCNC4=O)ccn2)cc1C` [Example 604, trifluoroacetate], the IC50 is reported as 354 nM.
`O=C1NCCc2[nH]c(-c3ccnc(/C=C/c4ccccc4N4CCOCC4)c3)cc21` [Example 529, 2-{2-[(E)-2-(2-morpholin-4-ylphenyl)vinyl]pyridin-4-yl}-1,5,6,7-tetrahydro-4H-pyrrolo[3,2-c]pyridin-4-one trifluoroacetate] gave an IC50 of 171 nM.
With `COCCN(C)c1ccccc1/C=C/c1cc(-c2cc3c([nH]2)CCNC3=O)ccn1` [Example 716, trifluoroacetate] the IC50 was 1810 nM.
In the case of `O=C1NCCc2[nH]c(-c3ccnc(/C=C/c4c(F)c(F)c(F)c(F)c4F)c3)cc21` [Example 563, trifluoroacetate], the IC50 is reported as 245 nM.
For `O=C1NCCc2[nH]c(-c3ccc(O)c(-c4cnc5ccccc5c4)c3)cc21` [Example 676], the IC50 was 937 nM.
For `CC1Cc2[nH]c(-c3ccnc(-c4ccc(N(C)C)nc4)c3)cc2C(=O)N1` (stereo not shown) [Example 295, trifluoroacetate], the IC50 was 53.4 nM.
For `COc1ccc(/C=C/c2cc(-c3cc4c([nH]3)CCNC4=O)ccn2)cc1` [Example 170, trifluoroacetate], the IC50 was 29.6 nM.
`O=C(CCCl)Nc1cccc(-c2cc(-c3cc4c([nH]3)CCNC4=O)ccn2)c1` [Example 336, trifluoroacetate] showed an IC50 of 64.5 nM.
With `O=C1NCCc2[nH]c(-c3cc(-c4cnc5ccccc5c4)ncc3F)cc21` [Example 4, trifluoroacetate] the IC50 was 7 nM.
`CC(=O)OCC(=O)Nc1cccc(-c2cc(-c3cc4c([nH]3)CCNC4=O)ccn2)c1` [Example 279, trifluoroacetate] was tested, and the IC50 was 51.1 nM.
For `COC(=O)Nc1ccc(-c2cc(-c3cc4c([nH]3)CCNC4=O)ccn2)cc1` [Example 203, trifluoroacetate], the IC50 was 35.1 nM.
For `O=C1NCCc2[nH]c(-c3ccnc(/C=C/c4cccc(Oc5ccccc5)c4)c3)cc21` [Example 581, trifluoroacetate], the IC50 was 295 nM.
Work on `NCCCc1ccc(-c2cc(-c3cc4c([nH]3)CCNC4=O)ccn2)cn1` [Example 485] yielded an IC50 of 132 nM.
In the case of `O=Cc1cccc(-c2cc(-c3cc4c([nH]3)CCNC4=O)ccn2)c1` [Example 204, trifluoroacetate], the IC50 is reported as 35.5 nM.
`CC(=NO)c1ccc(-c2cc(-c3cc4c([nH]3)CCNC4=O)ccn2)cc1` [Example 349, trifluoroacetate] gave an IC50 of 66.7 nM.
`O=C1NCCc2[nH]c(-c3ccnc(/C=C/c4ccccc4N4CCNCC4)c3)cc21` [Example 667, trifluoroacetate] was tested, and the IC50 was 791 nM.
`O=C1NCCc2cc(-c3cc(-c4cc5c([nH]4)CCNC5=O)ccn3)ccc21` [Example 161, trifluoroacetate] showed an IC50 of 28.6 nM.
`Cc1cncc(-c2cc(-c3cc4c([nH]3)CCNC4=O)ccn2)c1` [Example 111, trifluoroacetate] was tested, and the IC50 was 22.5 nM.
`O=C1NCCc2[nH]c(-c3ccnc(-c4ccc(C(=O)C5CC5)cc4)c3)cc21` [Example 167, trifluoroacetate] gave an IC50 of 29.5 nM.
`CC(=O)c1cccc(-c2cc(-c3cc4c([nH]3)CCNC4=O)c(F)cn2)c1` [Example 159, trifluoroacetate] was tested, and the IC50 was 28.3 nM.
`O=C1NCCc2[nH]c(-c3ccnc(/C=C/c4c[nH]c5ccccc45)c3)cc21` [Example 276, trifluoroacetate] showed an IC50 of 50.1 nM.
For `O=C1NCCc2[nH]c(-c3ccnc(/C=C/c4cc5ccccc5o4)c3)cc21` [Example 494], the IC50 was 134 nM.
In the case of `COC(=O)c1ccc(-c2cc(-c3cc4c([nH]3)CCNC4=O)ccn2)cc1` [Example 105, trifluoroacetate], the IC50 is reported as 22 nM.
Work on `O=C1NCCc2[nH]c(-c3ccnc(/C=C/c4ccc(-c5ccccc5)cc4)c3)cc21` [Example 639, trifluoroacetate] yielded an IC50 of 562 nM.
For `CON=C(C)c1ccc(-c2cc(-c3cc4c([nH]3)CCNC4=O)ccn2)cc1` [Example 415], the IC50 was 92.3 nM.
With `O=C1NCCc2[nH]c(-c3ccnc(/C=C/c4csc(-c5ccccc5)n4)c3)cc21` [Example 602, trifluoroacetate] the IC50 was 348 nM.
`Cc1ccc(-c2cc(-c3cc4c([nH]3)CCNC4=O)ccn2)cc1F` [Example 150, trifluoroacetate] was tested, and the IC50 was 27.6 nM.
With `CN(C)S(=O)(=O)c1ccc(-c2cc(-c3cc4c([nH]3)CCNC4=O)ccn2)cc1` [Example 470] the IC50 was 120 nM.
Work on `CN(C)C/C=C/C(=O)NCc1cccc(-c2cc(-c3cc4c([nH]3)CCNC4=O)ccn2)c1` [Example 465] yielded an IC50 of 118 nM.
For `CN(N)c1cc(-c2cc3c([nH]2)CCNC3=O)ccn1` [Example 756, 2-[2-(1-methylhydrazino)pyridin-4-yl]-1,5,6,7-tetrahydro-4H-pyrrolo[3,2-c]pyridin-4-one], the IC50 was 4910 nM.

Same assay, conditions: MAPKAP2 Avg. IC50, MK-2 inhibiting activity, Table I
`O=C1NCCc2[nH]c(-c3cc(F)nc(-c4ccccc4F)c3)cc21` [Example 802, 2-[2-fluoro-6-(2-fluorophenyl)pyridin-4-yl]-1,5,6,7-tetrahydro-4H-pyrrolo[3,2-c]pyridin-4-one trifluoroacetate] gave an IC50 of 20000 nM.
